Data from publication PMC3731320, “Identification of Benzimidazole Diamides as Selective Inhibitors of the Nucleotide-Binding Oligomerization Domain 2 (NOD2) Signaling Pathway” (PLoS ONE, 2013).
Where two headings read alike, the source gives them in different places.

Experiments:
NOD1 [1] = test: IL-8 secretion induced by NOD1 over-expression (BacMam) in HEK293T cells with or without iE-DAP; format: cell-based, human
Protocol: (§1) Over-expression of NOD1 and NOD2 was achieved by transduction of HEK293T cells with either NOD1 or NOD2 BacMam recombinant baculoviruses. […] The effect of compounds on activator-independent NOD1/2 signaling was determined by 30 minute pre-treatment of cells (in 96-well plates seeded the previous day in DMEM high glucose with 10% FBS at 60,000 cells/well) followed by infection with NOD1 or NOD2 BacMam virus (MOI = 50). IL-8 was measured in conditioned medium after 24 hour incubation at 37 °C. To determine the effect of compounds on NOD1/2 activator-dependent IL-8 secretion in BacMam transduced HEK293T, the cells were infected with virus for 6 hours (MOI = 50), and following the removal of virus the cells were cultured over-night. The next day medium was again replaced and cells pre-treated with compound for 30 minutes followed by stimulation with either MDP (30 ng/mL) or iE-DAP (300 ng/mL). IL-8 was measured in conditioned medium by HTRF after 24-hour incubation at 37 °C.

NOD1 [2] = test: iE-DAP-stimulated IL-8 release in 293/hNOD1 cells (HTRF); format: cell-based, human; conditions: 60 ng/mL iE-DAP
Protocol: (§2) After 24 hours the amount of IL-8 secreted into the medium was determined by homogeneous time resolved fluorescence (HTRF) assay by the direct addition of a 1:1 mix of europium cryptate and XL665-conjugated anti-IL-8 antibodies according to the manufacturer's instructions (Cisbio).

300 human kinases = test: Kinase panel profiling (Reaction Biology Corp); format: biochemical; conditions: compound at 1 μM; 10 μM ATP; any kinase of the panel
Protocol: The original hit compound identified as a selective inhibitor of the NOD2 pathway was profiled for inhibitory activity against 300 human kinases (Reaction Biology Corp). The compound was tested in duplicate at a single concentration (1 μM) and was pre-incubated with enzyme for 20 minutes prior to addition of 10 μM ATP.

NOD1 [3] = test: Tri-DAP-stimulated IL-8 release in HCT116 cells (endogenous NOD1); format: cell-based, human
Protocol: (§3) Compound activity on endogenous NOD1 and NOD2 receptors was determined by inhibition of either Tri-DAP or MDP-stimulated IL-8 release, respectively, using HCT116 human colon carcinoma cells. […] The cells were maintained in DMEM high glucose medium supplemented with 25 mM HEPES and 10% FBS. For assay, cells were seeded into 96 well plates (90,000 cells/well) in DMEM containing 1% FBS and pre-incubated with compounds for 1 hour before addition of either 1 μg/mL MDP or 25 μg/mL Tri-DAP. The level of IL-8 released into medium after 24-hour incubation was determined by HTRF assay as described above and fluorescence measured on an Envision model 2102 multilabel plate reader (Perkin Elmer).

NOD2 [4] = test: MDP-stimulated IL-8 release in 293/hNOD2 cells (HTRF); format: cell-based, human; conditions: for IC50: Homo sapiens
Protocol: as §2

NOD2 [5] = test: Western blot of MAPK phosphorylation and IκBα in MDP-stimulated 293/hNOD2 cells; format: cell-based, human; conditions: GSK669 at 1 and 10 μM
Protocol: Confluent cultures of 293/-hNOD1 and -hNOD2 cells in 24-well plates were serum-starved over-night. The next day, cells were pre-incubated for 1 hour with compound and then stimulated for 1 hour with either 50 μg/mL Tri-DAP or 25 μg/mL MDP, respectively. Whole cell lysates were prepared in 1X cell lysis buffer (Cell Signaling Technology) containing additional inhibitors of aspartic, cysteine and serine proteases and aminopeptidases (protease inhibitor cocktail set III, EMD Biosciences) and inhibitors of multiple phosphatases (phosphatase inhibitor cocktail sets II and III, Sigma-Aldrich). The levels of phosphorylated and total p38, JNK, ERK1/2 and total IκBα were determined by immunoblotting of ∼20 μg protein per sample using the following primary antibodies: phospho-p38 MAPK (12F8, #4631), p38 MAPK (#9212), phospho-JNK (#9251), JNK (#9252) and IκBα (#9242) all purchased from Cell Signaling Technology, and phospho-ERK1/2 (sc-7383) and ERK1/2 (sc-94) antibodies from Santa Cruz Biotechnology.

NOD2 [6] = test: MDP-stimulated cytokine release in primary human monocytes; format: cell-based; conditions: primary human monocytes
Protocol: […] The concentration of IL-1β, IL-6 and TNFα in medium samples collected after 24-hour treatment was determined using the MS6000 human pro-inflammatory-4 II tissue culture kit (Meso Scale Discovery). The IL-8 concentration was determined by HTRF.

NOD2 [7] = test: MDP-stimulated IL-8 release in HCT116 cells (endogenous NOD2); format: cell-based, human
Protocol: as §3

TLR2 = test: Pam2CSK4-stimulated IL-8 release in 293/hTLR2 cells; format: cell-based, human; conditions: read-out: IC50 293/hTLR2 Pam2CSK4, IL-8 end-point, 3–10 ng/mL Pam2CSK4
Protocol: as §2

NOD2 [8] = test: IL-8 secretion induced by NOD2 over-expression (BacMam) in HEK293T cells, activator-independent; format: cell-based, human
Protocol: as §1

TNFR1 = test: TNFα-stimulated (TNFR1-induced) IL-8 release in 293/hNOD2 cells; format: cell-based, human; conditions: read-out: IC50 293/hNOD2 TNFα, IL-8 end-point, 20 ng/mL rhTNFα
Protocol: as §2

[9] = biological target: T1, full length human FLAG-6His tagged RIP2 (Homo sapiens, UniProt O43353); test: RIP2 kinase autophosphorylation assay (ADP-Glo); format: biochemical; conditions: autophosphorylation of RIPK2; 10 μM ATP
T1 construct: autophosphorylation of full length human FLAG-6His tagged RIP2; FLAG; 6His; made in house
T1 sequence (O43353 whole entry): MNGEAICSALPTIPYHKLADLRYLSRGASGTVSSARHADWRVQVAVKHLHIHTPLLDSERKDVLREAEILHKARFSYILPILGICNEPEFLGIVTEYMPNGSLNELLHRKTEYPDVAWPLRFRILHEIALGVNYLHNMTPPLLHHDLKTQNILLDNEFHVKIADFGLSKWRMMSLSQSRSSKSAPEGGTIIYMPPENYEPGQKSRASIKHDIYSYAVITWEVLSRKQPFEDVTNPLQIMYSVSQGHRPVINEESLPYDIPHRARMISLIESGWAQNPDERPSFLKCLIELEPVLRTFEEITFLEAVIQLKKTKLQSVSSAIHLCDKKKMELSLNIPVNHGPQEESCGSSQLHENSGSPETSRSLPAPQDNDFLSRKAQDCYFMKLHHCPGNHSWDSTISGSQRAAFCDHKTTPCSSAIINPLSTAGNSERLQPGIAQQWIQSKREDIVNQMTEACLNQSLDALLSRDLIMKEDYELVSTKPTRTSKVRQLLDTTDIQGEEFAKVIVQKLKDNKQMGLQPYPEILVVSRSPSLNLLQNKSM
Protocol: Direct effects of compounds on RIP2 kinase activity was determined by autophosphorylation of full length human FLAG-6His tagged RIP2 expressed and purified from baculovirus. Enzyme was pre-incubated with compounds in assay buffer (50 mM HEPES pH 7.5, 25 mM MgCl2, 0.05%[w/v] CHAPS, 1 mM DTT and 0.05 mg/mL BSA) in 384-well plates, and then incubated with 10μM ATP for 2 hours at room temperature. The amount of ADP generated was measured using the ADP-Glo universal ADP detection assay for kinases (Promega) and luminescence quantified on a ViewLux imager.

[10] = MOI 50, 24 hours, GSK669 5 μM, IKK inhibitor 0.5 μM

## O=C(Cn1c(CCNC(=O)c2ccccc2)nc2ccccc21)Nc1ccc2c(c1)CCC2 [Compound 1, N-(2-(1-(2-((2,3-dihydro-1H-inden-5-yl)amino)-2-oxoethyl)-1H-benzo[d]imidazol-2-yl)ethyl)benzamide]
NOD1 [1]; [10]
  effect on IL-8 secretion induced by NOD1 virus alone, single concentration: failed to block IL-8 secretion
NOD1 [1]; in the presence or absence of iE-DAP
  effect on IL-8 secretion induced by over-expression of NOD1: had no effect
NOD1 [2]; Homo sapiens, read-out: IC50 293/hNOD1 iE-DAP, IL-8 end-point
  IC50: > 30 µM
NOD1 [2]; read-out: IC50 293/hNOD1 iE-DAP, IL-8 end-point, listed as GSK669 (1)
  IC50: > 50 µM
300 human kinases
  inhibition of kinase activity, panel of 300 human kinases: ≤ 50%
NOD1 [3]; Homo sapiens, HCT-116, IL-8 end-point, 25 μg/mL Tri-DAP
  IC50: > 50 µM
NOD1 [3]; Tri-DAP 25 μg/mL, 1 hour pre-treatment
  effect on IL-8 secretion induced by Tri-DAP in HCT116 cells: had no effect
NOD2 [4]; read-out: IC50 293/hNOD2 MDP
  IC50: 3.2 µM
NOD2 [4]; MDP-stimulated IL-8 production assay in 293/hNOD2 cells, Figures 4 and 5, read-out: NOD2 IC50
  IC50: 3.3 ± 1.6 µM
NOD2 [4]; all selectivity assays vs NOD2 IC50
  fold less active in the selectivity assays than on the NOD2 pathway: at least 10 fold
NOD2 [5]
  effect on MDP-induced p-p38, p-JNK and total IκBα: prevented MDP-induced increases in p-p38 and p-JNK and MDP-induced reduction in total IκBα
NOD2 [6]; compound 5 μM, MDP 0.1 μg/mL, IL-1β, IL-6, IL-8, TNFα, 24 hours
  effect on MDP-stimulated cytokine secretion, single concentration: partial inhibition
NOD2 [6]; dose response
  effect on release of IL-8, IL-6, TNFα and IL-1β in monocytes stimulated with MDP: dose-dependently inhibited
NOD2 [7]; Homo sapiens, HCT-116, IL-8 end-point, 1 μg/mL MDP
  IC50: 0.5 ± 0.2 µM
NOD2 [7]; MDP 1 μg/mL, 1 hour pre-treatment
  effect on IL-8 secretion induced by MDP in HCT116 cells: dose-dependently inhibited
TLR2; listed as GSK669
  IC50: > 30 µM
TLR2; listed as GSK669 (1)
  IC50: > 80 µM
NOD2 [8]; [10]
  effect on IL-8 secretion induced by NOD2 virus alone, single concentration: failed to block IL-8 secretion
NOD2 [8]; NOD2 virus 24 hours, GSK669 up to 50 μM
  effect on IL-8 secretion induced by NOD2 over-expression: failed to inhibit this response
TNFR1; listed as GSK669
  IC50: > 30 µM
TNFR1; listed as GSK669 (1)
  IC50: > 100 µM
[9]
  IC50: > 100 µM
